Source: patent US20220062418A1, “TUMOR TARGETING VITAMIN B12 DERIVATIVES FOR X-RAY ACTIVATED CHEMOTHERAPY” (THE TRUSTEES OF DARTMOUTH COLLEGE, priority 2018, published 2022)

System: tumor stroma
Assay: Losartan effect on stroma and perfusion in two tumor models
Format: in vivo
Conditions: preliminary data
From the text: In an alternative embodiment, we add transcobalamin II to enhance uptake of cobalamin derivatives into tissue. […] Drug delivery is thought to be impeded by the dense stroma of pancreatic adenocarcinoma, and so delivery of cobalamin conjugates could be limited by this issue. […] In an alternative embodiment we treat with Losartan for 10 days prior to cobalamin-drug conjugate treatment to enhance the delivery of this platform to the PDAC tumor stroma.

## CCCCc1nc(Cl)c(CO)n1Cc1ccc(-c2ccccc2-c2nn[nH]n2)cc1 [Losartan]
  microvessel perfusion: increases in microvessel perfusion
  stromal formation: reduce stromal formation
